Assay results: patent publication US20120121509A1, “VITAL FLUOROCHROME CONJUGATES AND METHODS OF USE” (THE GENERAL HOSPITAL CORPORATION, priority 2009, published 2012)

Legend:
Jurkat cells = test: In vitro T1 weighted MRI / FRI of packed cell phantoms of camptothecin treated Jurkat cells; assay type: cell-based; details: for uptake by CPT treated cells by MRI: T1 weighted MRI, FRI and relaxometry, CPT treated versus non-CPT treated Jurkat cells
Protocol: The interaction of GadoTO with necrotic cells is shown schematically in FIG. 5A. GadoTO is excluded by vital cells. Prolonged ischemia or a 48 hour exposure to CPT induces necrosis, which causes GadoTO to enter cells and intercalate with double stranded nuclear DNA. […] Effects on cellular T1 were confirmed by relaxometry studies using cell suspensions.

[1] = system: necrotic cardiomyocytes of infarcted myocardium; test: In vivo MR imaging of ischemia induced necrosis, left coronary artery ligation; details: mouse
Protocol: For in vivo MR studies, we employed a model of prolonged ischemia, obtained when the left coronary artery of a beating mouse heart was ligated for 18 hours. The ligation and procedure is similar to our previously described method (Sosnovik, D. E. et al., Magn. Reson. Med., 54:718-24, 2005) except the duration is for 18 hours. […] GadoTO was injected (18 hours post ligation) and imaged (21 h). […] Gd-DTPA washed in and out of damaged myocardium within 1 hour.

[2] = cited from earlier work; for Abs (absorption): first figure of Abs/em; for em (emission): second figure of Abs/em
plasmid DNA = test: Relaxation assay: binding of GadoTO to plasmid DNA monitored by relaxometry (T1); details: GadoTO 1 mM, plasmid DNA 0.025 to 0.3 ug/uL, Bruker minispec; 95% confidence interval 0.078-0.101; read-out: half-maximal concentration (EC50) from T1 values
Protocol: Experimental Details of the Relaxation Assay: Gadolinium thiazole orange (GadoTO) at 1 mM was employed with increasing concentrations of plasmid DNA (DNA 0.025 to 0.3 ug/uL). Relaxation times were measured on a Bruker minispec at […].
(§1) Results from the Relaxation and Fluorescence Assays: The design of vital fluorochrome conjugates must preserve the essential features of the vital fluorochrome upon which it is based. The verification that a putative vital fluorochrome conjugates (VF-Linker-Reporter) has the properties of the VF upon which its was based is shown in FIGS. 2A, 2B, 3 and 4 which show the results with the vital fluorochrome conjugates known as GadoTO. Since the reporter group of GadoTO is a paramagnetic gadolinium chelate, binding can be ascertained by changes in the water relaxation rates. […] Binding of small GadoTO to the larger DNA slows the molecular motion, increasing the R1 relaxivity and decreasing the solution T1.

DNA = test: Fluorescence assay: binding of GadoTO to DNA monitored by fluorescence; details: GadoTO 2.35 uM, increasing DNA concentrations, emission 510-700 nm; 95% confidence interval 0.149-0.214; read-out: half-maximal concentration (EC50) from fluorescence values
Protocol: Experimental Details of the Fluorescence Assay: GadoTO at 2.35 uM was employed with increasing concentrations of DNA. Absorption spectra were measured on a Varian Cary 50 Bio UV-Visible spectrophotometer. The absorbance at 511 nm was measured. Fluorescence emission spectra were recorded on a Varian Cary Eclipse fluorescence spectrophometer. Fluorescence intensities were measured between 510 and 700 nm and corrected, when necessary, for matched absorbances at 511 nm. Fluorescence intensities were plotted versus DNA concentrations.
as §1

Jurkat T cells [3] = test: Dual wavelength FACS with Annexin V-APC, camptothecin-treated Jurkat T cells; assay type: cell-based
Protocol: (§2) Experimental Details for the Dual Wavelength FACS and Single Channel FACS: Cell culture: All experiments described used Jurkat T cells (Clone E6-1, ATCC #TIB-152). Cells were grown in RPMI 1640 medium (ThermoFisher Scientific, Hampton, N.H.) with 10% fetal bovine serum (Valley Biomedical, Winchester, Va.), 1% L-Glutamine (Mediatech, Manassas, Va.), 1% Penycillin-Streptomycin (Mediatech, Manassas, Va.). Media was changed every two or three days. Cells were maintained at 37° C., 5% CO2. Flow cytometry experiments: Cells were treated with camptothecin (CPT, 24 hrs, 10 μM). After removal of the medium, cells were resuspended into 100 μL of binding buffer (10 mM HEPES, 140 mM NaCl, 2.5 mM CaCl2, 1% FBS). Cells were stained at 37° C. for 15 min with 1 μL Annexin-APC (Invitrogen) and 1 μL propidium iodide (BD Pharmingen) or 1 μL of GadoTO (0.1 mM stock solution in binding buffer). Cells were diluted with 200 μL of binding buffer and analyzed by flow cytometry (FACSCalibur, Becton Dickinson). Fluorescence from the APC fluorochrome was measured in FL4, PI in FL3, and GadoTO in FL1.
Results from Dual Wavelength FACS: The exclusion of GadoTO from healthy cells and uptake by necrotic cells by FACS is shown in FIG. 3. […] GadoTO binding necrotic cells were of two intensities (Hi and Lo), indicating two subpopulations of necrotic cells.

Jurkat T cells [4] = test: Single channel FACS, GadoTO versus propidium iodide; assay type: cell-based
Protocol: as §2, with “FL1. […]” for “FL1.”

infarcted myocardium = test: MR imaging of post myocardial infarction phases (age of infarction); assay type: in vivo; details: mouse
Excerpt: An additional feature of the invention is an imaging method to determine the age of a myocardial infarction (MI), i.e., the time since the occlusion began. Patients can present with symptoms of variable intensity and duration that may or may indicate an infarction. Current techniques can define regions of non-functional myocardium, but cannot define the time of infarction. With developing (“young”) infarctions, treatments to limit or reverse the affected area are indicated, while with “old” infarctions such treatments are futile. In this method a vital fluorochrome conjugate is injected intravenously and MRI or PET or SPECT are used to measure the vital fluorochrome conjugates uptake in an infracted area.
FIGS. 6A and 6B show an example of a beating mouse heart injected with GadoTO imaged during phase 2 (18 hours) (FIG. 6A) and phase 4 (8 days) (FIG. 6B) of the post MI reaction phases. […] GadoTO can thus be used to specifically image acutely necrotic myocardium/tissue.

O=C([O-])CN(CCN(CC(=O)[O-])CC(=O)O)CCN(CC(=O)[O-])CC(=O)O.[Gd+3] [Gd-DTPA]
uptake by CPT treated cells by MRI (Jurkat cells): did not induce the uptake
time to wash in and out of damaged myocardium ([1]; damaged myocardium): ≤ 1 h

CCCN(CCCN(C)C)C1=C/C(=C\c2sc3ccccc3[n+]2C)c2ccccc2N1c1ccccc1 [Sybr Green]
Abs (absorption) [2]: 490 nm
em (emission) [2]: 520 nm

CN1/C(=C/c2cc[n+](CCC[N+](C)(C)C)c3ccccc23)Sc2ccccc21 [TO-PRO 1]
Abs (absorption) [2]: 515 nm
em (emission) [2]: 531 nm

C[n+]1c(/C=C/C=C2\C=CN(CCC[N+](C)(C)C)c3ccccc32)sc2ccccc21 [TO-PRO 3]
Abs (absorption) [2]: 612 nm
em (emission) [2]: 631 nm

CN(C)CCCN1C=C\C(=C/C=C/C=C/c2sc3ccccc3[n+]2C)c2ccccc21.I.[I-] [TO-PRO 5]
Abs (absorption) [2]: 745 nm
em (emission) [2]: 770 nm

CN1/C(=C/C=C/C2C=CN(CCC[N+](C)(C)C)c3ccccc32)Oc2ccccc21 (centres unmarked) [YO-PRO 3]
Abs (absorption) [2]: 612 nm
em (emission) [2]: 631 nm

CN1/C(=C/c2cc[n+](CCC[N+](C)(C)C)c3ccccc23)Oc2ccccc21 [YO-PRO]
Abs (absorption) [2]: 491 nm
em (emission) [2]: 509 nm

Gadolinium thiazole orange [GadoTO]
EC50 (plasmid DNA): 89 µM
EC50 (DNA): 179 µM
binding to cells, dual wavelength FACS (Jurkat T cells [3]; Jurkat T cells after camptothecin (+CPT, 24 hrs, 10 μM), necrotic cells): cells bound both probes
binding to cells, dual wavelength FACS (Jurkat T cells [3]; Jurkat T cells before camptothecin (-CPT), viable cells): failed to bind
binding to cells, single channel FACS (Jurkat T cells [4]; Jurkat cells with CPT (+CPT), PI compared with GadoTO): two peaks (Lo and Hi) of highly fluorescent cells were seen
binding to cells, single channel FACS (Jurkat T cells [4]; Jurkat cells without CPT (-CPT)): cells failed to bind GadoTO
uptake by CPT treated cells by MRI (Jurkat cells): brighter than non-CPT treated cells
nuclear cell fluorescence emission (Jurkat cells; after intercalation with double stranded nuclear DNA of necrotic cells): 533 nm
infarct on GRE image ([1]; injected 18 hours post ligation, imaged 21 h, gradient echo): barely visible infarct
infarct on IR GRE image ([1]; injected 18 hours post ligation, imaged 21 h, inversion recovery GRE): well-defined, bright infarct
uptake in infarcted myocardium (infarcted myocardium; phase 2 (18 hours) post MI): Profound uptake
uptake in infarcted myocardium (infarcted myocardium; phase 4, injected 8 days after myocardial infarction): no uptake
